The structures appear in SMILES notation. Where only a bound is given, the exact number is not on record here.

The target of the experiment is T1, human-derived receptor TLR7 (Homo sapiens, UniProt Q9NYK1).
T1 construct: host or cells: HEK-Blue hTLR7 cells (HEK293-derived reporter line)
T1 sequence (Q9NYK1 27-1049): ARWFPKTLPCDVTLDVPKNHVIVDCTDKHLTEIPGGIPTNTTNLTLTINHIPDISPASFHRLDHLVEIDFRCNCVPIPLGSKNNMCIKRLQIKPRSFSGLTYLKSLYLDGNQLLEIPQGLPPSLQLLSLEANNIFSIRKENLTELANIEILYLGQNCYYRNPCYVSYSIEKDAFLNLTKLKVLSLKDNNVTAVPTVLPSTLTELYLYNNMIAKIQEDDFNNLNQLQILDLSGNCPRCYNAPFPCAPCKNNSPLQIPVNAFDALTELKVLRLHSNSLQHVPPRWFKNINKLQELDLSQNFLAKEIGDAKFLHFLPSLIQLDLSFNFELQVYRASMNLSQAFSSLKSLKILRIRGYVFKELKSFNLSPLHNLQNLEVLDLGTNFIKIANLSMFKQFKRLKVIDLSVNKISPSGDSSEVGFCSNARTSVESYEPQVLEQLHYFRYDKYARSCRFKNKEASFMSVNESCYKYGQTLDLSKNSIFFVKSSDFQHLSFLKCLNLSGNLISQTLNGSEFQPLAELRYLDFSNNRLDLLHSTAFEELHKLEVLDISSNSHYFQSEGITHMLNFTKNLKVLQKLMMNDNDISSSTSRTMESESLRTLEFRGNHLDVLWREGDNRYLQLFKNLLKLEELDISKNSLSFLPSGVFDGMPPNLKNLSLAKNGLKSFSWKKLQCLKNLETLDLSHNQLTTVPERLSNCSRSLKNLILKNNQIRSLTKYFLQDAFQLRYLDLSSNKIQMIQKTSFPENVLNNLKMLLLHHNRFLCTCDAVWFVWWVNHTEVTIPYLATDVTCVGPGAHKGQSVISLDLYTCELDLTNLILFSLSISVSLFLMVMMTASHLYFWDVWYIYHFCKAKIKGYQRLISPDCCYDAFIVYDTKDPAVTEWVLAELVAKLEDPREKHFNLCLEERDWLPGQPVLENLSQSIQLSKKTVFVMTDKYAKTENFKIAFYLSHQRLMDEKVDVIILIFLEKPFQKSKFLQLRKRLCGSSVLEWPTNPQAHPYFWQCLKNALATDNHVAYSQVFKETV
The experiment can be described thus: Assay on agonistic activity for human-derived receptor TLR7 (HEK-Blue hTLR7 cells, HEK-Blue Detection Medium). The class given is cell-based. The following applies: 16 h incubation, absorbance at 655 nm, read-out: EC50. How it is done: HEK-Blue™ hTLR7 cells (InvivoGen, hkb-htlr7) were cultured in a DMEM complete medium (Gibco, 12100) containing 10% FBS (Invitrogen, 10099141), 1% P/S (Invitrogen, 15140122), 10 μg/mL Blasticidin (InvivoGen, ant-bl-1), 100 μg/mL Zeocin (InvivoGen, ant-zn-1), and 100 μg/mL Normocin (InvivoGen, ant-nr-1). The cells were cultured in an incubator at 37° C. with 5% CO2. When HEK-Blue™ hTLR7 cells reached a growth density of 70%-80%, cell passage was needed.
The agonistic activity for the human-derived receptor TLR7 by HEK-Blue™ hTLR7 cells was assayed by HEK-Blue™ Detection Medium (InvivoGen, hd-det2). First, a bag of HEK-Blue™ Detection Medium powder was dissolved in 50 mL of ultra-pure sterile water for complete dissolution, and then the dissolved medium was filtered into a new 50 mL centrifuge tube through a 0.22 μm filter. Finally, antibiotics were added into the filtered detection medium until the final concentration was 1% for P/S and 100 μg/mL for Normocin. HEK-Blue™ Detection Medium was pre-heated to 37° C. in advance on the day of the assay on the activity for the TLR7 receptor, and the temperature was always maintained at 37° C.
The compound powder was dissolved in 100% DMSO (Sigma, D2650-100ML) to obtain a 10 mM stock solution, and the compound was completely dissolved by shaking with an oscillator. The stock solution of the compound was subjected to a 5-fold dilution to 2 mM with 100% DMSO. This was followed by a 3-fold serial dilution for a total of 8 concentration gradients. Then, each of the concentration gradients was subjected to a 20-fold dilution to 100 μM, 33.3 μM, 11.1 μM, 3.7 μM, 1.23 μM, […], 0.114 μM, and 0.05 μM using HEK-Blue™ Detection Medium. 20 μL of each of the dilutions was added to a 96-well cell culture plate (Corning, 3599).
On the day of the assay on the agonistic activity for the human-detived receptor TLR7, HEK-Blue™ hTLR7 cells has a growth density of 70%-80%, and the cell medium was removed. 1 mL of cell dissociation buffer (Gibco, 13151-014) was added to each 100 mm cell culture dish, and the cells were incubated in an incubator at 37° C. for 5 min. The cells were pipetted using a DMEM cell medium to obtain a single cell suspension, which was then centrifuged at 1000 rpm for 10 min to collect the cell pellet. The cell pellet was resuspended with HEK-Blue™ Detection Medium pre heated to 37° C. The cells were counted and diluted to 220,000 cells/mL. Finally, 180 μL of cell suspension (40,000 cells/well) was added to each well of the 96-well cell culture plate to which the compound had been added, and the cell suspension was mixed with the compound using a pipettor. Final concentrations of the compound were 10 μM, 3.3 μM, 1.1 μM, 0.37 μM, 0.12 μM, 0.04 μM, 0.01 μM, and 0.005 μM. After incubation in an incubator at 37° C. for 16 h, the absorbance was read at 655 nm using an M5e microplate reader (MD, USA).
The EC50 of the compound was calculated using the software GraphPad Prism (GraphPad Software, USA). The background reading of the detection culture was subtracted from the absorbance readings at 655 nm of all wells of the 96-well plate, the ratio of each well to the negative control well (the well without the compound) was calculated, and then the percentage of the ratio of each well to the positive control well (the well treated with 10 μM positive compound), i.e., the percentage of activity, was calculated. Finally, the sigmoidal dose-response (variable slope) curve between the percentage of activity and the concentration of the compound was calculated using the software GraphPad Prism to calculate the EC50 of the compound. […]
In general, EC50 refers to the midpoint of the concentration-response curve. `C=CCSc1nc2c(N)nc3ccccc3c2n1Cc1ccc(CN2CCNCC2)cc1` [Example 215]: the EC50 is under 50 nM.
The result for `CSc1nc2c(N)nc3ccccc3c2n1Cc1ccc(CN2CCNCC2)s1` [Example 220] reads 50 to 100 nM; that for `CSc1nc2c(N)nc3ccccc3c2n1Cc1ccc(OCCN(C)C)nc1` [Example 223], 50 to 100 nM; that for `COc1cc(CN2CCCC2)ccc1Cn1c(SC)nc2c(N)nc3ccccc3c21` [Example 233], under 50 nM.
As for `COc1cc(CN2CCNCC2)ccc1Cn1c(SC)nc2c(N)nc3ccccc3c21` [Example 238], the EC50 lay in the range of 50 to 100 nM.
Turning to `COc1cc(CN2C[C@H]3CN(C)C[C@H]3C2)ccc1Cn1c(SC)nc2c(N)nc3ccccc3c21` [Example 239], the EC50 was 50 to 100 nM.
As for `COc1cc(CNC(C)C)ccc1Cn1c(SC)nc2c(N)nc3ccccc3c21` [Example 241], the EC50 is 50 to 100 nM.
For the compound `COc1cc(CN2CC(O)C2)ccc1Cn1c(SC)nc2c(N)nc3ccccc3c21` [Example 244], the EC50 lay within 50 to 100 nM.
As for `COc1cc(CN2CC[C@H](O)C2)ccc1Cn1c(SC)nc2c(N)nc3ccccc3c21` [Example 245], the EC50 fell in the range of 50 to 100 nM.
Turning to `COc1cc(C2CCN(C)CC2)ccc1Cn1c(SC)nc2c(N)nc3ccccc3c21` [Example 246], the EC50 is 50 to 100 nM.
For `COc1cc(CN2CCN(C)CC2)ccc1Cn1c(SC)nc2c(N)nc3ccccc3c21` [Example 247], the EC50 was 50 to 100 nM.
On to `COc1cc(OCCN(C)C)ccc1Cn1c(SC)nc2c(N)nc3ccccc3c21` [Example 248], for which the EC50 was in the range of 50 to 100 nM.
For the compound `CCCCOc1nc(N)c2c(n1)N(Cc1ccc(Oc3ccc(CNC)cc3)cc1)CC(=O)N2` [Example 252, 4-amino-2-butoxy-8-(4-(4-((methylamino)methyl)phenoxy)benzyl)-7,8-dihydropteridin-6(5H)-one], the EC50 is under 50 nM.

(Values after patent US20240150346A1, “CLASS OF HETEROAROMATIC COMPOUND, PREPARATION METHOD THEREFOR AND USE THEREOF” (INNOVSTONE THERAPEUTICS LIMITED, priority 2021, published 2024).)
